One series relates to HEMs. In words: Melanin synthesis in L-tyrosine-stimulated HEMs. Particulars: for effect on melanin synthesis: concentrations of up to 10 μM. Type of series: cell-based, human. As to the method: Human epidermal melanocytes (HEM) derived from neonatal human foreskins were purchased from Cascade Biologics (Portland, Oreg., USA). The HEMs were cultivated in Medium 254 supplemented with human melanocyte growth supplements (Cascade Biologics) and antibiotics.
The extracellular melanin levels were evaluated by measuring the absorbance of the conditioned media at a wavelength of 490 nm, while the intracellular melanin levels were evaluated after extracting melanin from the cells using 0.1 M NaOH at 60° C. for 60 minutes. The values for melanin content were normalized with respect to the protein content in each sample. The protein content was evaluated using the Bio-Rad DC assay (Bio-Rad Laboratories, Inc., Hercules, Calif., USA).

Series [1] relates to Human epidermal melanocytes (HEM). Particulars: HEMs, 48 hours.
Series [2] concerns cultivated melanocytes and a reconstituted skin tissue model. The settings on record: cited from earlier work.
The test system of series [3] is human epidermal melanocytes. Particulars: cited from earlier work.

Read-outs that look alike come from different tables or passages of the source.

As to `O=C(O)CO` [GA, glycolic acid], the “effect on melanin synthesis” value in the series with HEMs is recorded as “no significant effect”.
With `CC(=O)Oc1ccc(C=Cc2cc(OC(C)=O)cc(OC(C)=O)c2)cc1` [RTA, resveratryl triacetate], the cytotoxicity entry in series [1] (concentrations above 30 μM) is “showed cytotoxicity”. Moreover, the cytotoxicity entry in series [1] (concentrations below 30 μM) was “barely showed cytotoxicity”. For the same compound, in series [2] (compared to resveratrol), the stability to oxidation entry is listed as “higher stability” and the toxicity result is reported as “less toxic”. In series [2] (cultivated melanocytes and reconstituted skin tissue model), the melanin synthesis entry was “effective inhibitor”.
On to `OC[C@H]1O[C@@H](Oc2ccc(O)cc2)[C@H](O)[C@@H](O)[C@@H]1O` [arbutin], for which the figures for the “effect on melanin synthesis” value in the series with HEMs and in the series with HEMs (listed as Arbutin) were “no effect” and “no significant effect”, respectively.
In the case of `Oc1ccc(C=Cc2cc(O)cc(O)c2)cc1` [resveratrol], in series [3], the “activity of MITF and TYR promoter” value is “suppresses”; the melanin synthesis entry was “inhibit melanin synthesis”.
With `O=C(CO)Oc1ccc(/C=C/c2cc(OC(=O)CO)cc(OC(=O)CO)c2)cc1` [resveratryl triglycolate], in the series with HEMs, the melanin level entry was “reduced”.

Source of the values: US10662140B2, “Method for skin-whitening using composition containing resveratryl triglycolate” (KYUNGPOOK NATIONAL UNIVERSITY INDUSTRY-ACADEMIC COOPERATION …, priority 2016, dated 2020).
